Results published in ChEMBL document CHEMBL5532709, “Discovery of Biofilm Inhibitors from the Microbiota of Marine Egg Masses” (J Nat Prod, 2024).
Calls of active or inactive are those of the source. The calls are words filed in the database; no cut-off is given here.

What was measured:
Staphylococcus aureus [1] = assay: Inhibition of biofilm formation of Staphylococcus aureus incubated for 16 to 20 hrs by crystal violet staining based analysis; type: functional, organism-based
Staphylococcus aureus [2] = assay: Antibacterial activity against Staphylococcus aureus assessed as bacterial growth inhibition at 0.005 to 10 mg/ml incubated for 16 to 20 hrs by crystal violet staining based analysis; type: functional, organism-based; conditions: dose 0.005-10 mg/ml, time 16-20 hrs
Staphylococcus aureus [3] = assay: Disruption of pre-formed biofilm of Staphylococcus aureus at 518 uM incubated for 16 to 20 hrs by crystal violet staining based analysis relative to control; type: functional; conditions: time 16-20 hrs
Isoptericola = assay: Inhibition of biofilm formation of Isoptericola at 0.005 to 10 mg/ml incubated for 16 to 20 hrs by crystal violet staining based analysis; type: functional, organism-based
Staphylococcus aureus [4] = assay: Inhibition of biofilm formation of Staphylococcus aureus at […] incubated for 16 to 20 hrs in presence of >6.25 uM FeCl3 by crystal violet staining based analysis; type: functional, organism-based; conditions: dose lower 88.0 mg/ml, time 16-20 hrs
Vibrio cholerae = assay: Inhibition of biofilm formation of Vibrio cholerae incubated for 4.5 hrs by epifluorescence based assay; type: functional, organism-based
Staphylococcus aureus [5] = assay: Inhibition of biofilm formation of methicillin-resistant Staphylococcus aureus N315 at ~1 ug/ml incubated for 24 hrs by crystal violet staining based analysis relative to control; type: functional

O=C(NCCCC[C@@H]1CN=C(c2cccc(O)c2O)N1)c1cccc(O)c1O
IC50 (Staphylococcus aureus [1]): 88.5 µM
inhibition (Staphylococcus aureus [1]; time 16-20 hrs): Dose-Dependent Effect
inhibition (Staphylococcus aureus [2]): inactive
Activity (Staphylococcus aureus [3]): 30%
IC50 (Isoptericola): 50.6 µM
inhibition (Staphylococcus aureus [4]): inactive

C=C1Oc2cc(OC)cc(C(=O)OC)c2NC1=O
IC50 (Vibrio cholerae): 60.1 µM

CCCCC1CCCCCCc2cc1c(/C=C1\N=C(c3ccc[nH]3)C=C1OC)[nH]2 (stereo not drawn) [STREPTORUBIN B]
inhibition at 1 µg/mL (Staphylococcus aureus [5]): 70%
